Source: a melting point compilation (Tetko et al.; mined from patent text by program, amines drawn as free bases though some values may be those of a salt)
Non-standard residues stand in square brackets, D forms with d. Residues, ends and D or L forms follow the SMILES beside them. pGlu = O=C1CC[C@@H](C(=O)O)N1

Structure (SMILES) | melting point [°C]
Cc1ccc(C(=O)c2ccccc2Cl)n1N | 84 to 85
CC(Oc1cc(Oc2ccc(C(F)(F)F)cc2Cl)ccc1[N+](=O)[O-])C(=O)NCC1CCCO1 (centres undefined) | 102 to 104
CC(=O)C1CCC2C3CCC4CC(C)(O)CCC4(C)C3CCC12C (centres undefined) | 103
COc1ccc2c(c1)c(C1CCN(Cc3ccc(OC)c(C(=O)O)c3)CC1)cn2CCc1ccsc1 | 229 to 230
CN(C)Cc1ccc(CSCCNC(=C[N+](=O)[O-])NCCCCCCCCCCCCNC(=C[N+](=O)[O-])NCCSCc2ccco2)o1 | 69 to 72
NC(=O)N1C(=O)C(=C(OC(=O)c2ccco2)c2cccs2)c2cc(F)c(Cl)cc21 | 215 to 216
Cc1ccc(C2(C(=O)O)CC2C(=O)O)cc1 (single isomer, unassigned; (-)) | 145 to 148
COc1cc2c(cc1OC)C1Cc3cc4c(cc3CC(=O)N1CC2)OCO4 (centres undefined) | 207 to 209
CC(=O)c1cc(Br)c(OCCCBr)c(Br)c1 | 87 to 88
COC(=O)CCNc1ccccc1CNC(=O)C1Cc2ccccc2N1S(=O)(=O)c1ccc(-c2cccc(C(F)(F)F)c2)cc1 (centres undefined) | 60
O=C1O[C@@H](CO)CN1c1ccc(C2=CCOCC2)c(F)c1 | 127 to 130
Cc1sccc1C1(c2cccc(-c3cncnc3)c2)N=C(N)N(C)C1=O (centres undefined) | 154 to 159
Cc1nc2c(O)c(CCC(=O)c3ccc(F)cc3)c(C(=O)N(C)C)cc2n1C | 248 to 249
CCOC(=O)c1cnc(N(Cc2cc(Br)ccc2OCc2ccccc2)C(=O)OC(C)(C)C)cn1 | 116 to 117
Cc1c(S(=O)(=O)Nc2ccc3[nH]cc(CCN(C)C)c3c2)sc2ccc(Cl)cc12 | 226 to 227
Cn1nc(-c2ccc(F)cc2)c(-c2ccncc2)c1C=CCc1ccccc1 | 136 to 137
Cc1cc2c(cc1[N+](=O)[O-])OCO2 | 83 to 84

Structure (SMILES) | melting point [°C]
CCCNC(=O)c1nnc(NCc2cc(Br)ccc2OCc2ccccc2)s1 | 154
CCOC(=O)n1c(=O)n(CCCl)c2cc(OC)ccc21 | 116 to 118
CC(C)C1(C)C(=O)NC2c3ccccc3C(=O)N21 (centres undefined) | 178 to 200
c1cc(-n2ccnc2)cc(-n2cnc3cc(-c4ccoc4)cnc32)c1 | 202 to 204
CC(=O)NC[C@H]1CN(c2cc(F)c(N3CCC4(CC3)CO4)c(F)c2)C(=O)O1 | 160 to 162
O=C(OI(OC(=O)C(F)(F)F)C(F)(F)C(F)(F)C(F)(F)C(F)(F)C(F)(F)C(F)(F)C(F)(F)C(F)(F)F)C(F)(F)F | 70 to 74
CCOC(=O)COc1ccccc1C(=O)Nc1ccc(O)cc1 | 208 to 210
C[Si](C)(C)C#Cc1c(F)c(F)c(F)c(C#C[Si](C)(C)C)c1F | 55 to 57
CCCCCCCCCCCCCC(=O)O[C@H](CCCCCCCCCCC)CC(=O)O | 28 to 29
N#Cc1ccc2c(c1)C=C(C(=O)O)C(C(F)(F)F)N2 (centres undefined) | 238 to 240
CC(C)(C)OC(=O)N1CCN(C(=O)c2ccncc2)CC1 | 139 to 140
CCOC(=O)c1sc2[nH]c(=O)ccc2c1Br | 262 to 268
Cc1cc2c(N3CCC(CCO)CC3)ccc(C#N)c2o1 | 106 to 107
O=C(NCc1ccccc1)c1ccnc(NC(=O)c2cccc(C(F)(F)F)c2)c1 | 87 to 88
N#Cc1ccc(N2CCOCC2)c2ccccc12 | 128 to 129
C[C@@H](CCOC(N)=O)CN1CCC(c2noc3cc(F)ccc23)CC1 | 72 to 74

Further lines, results first:

melting point [°C] | Structure (SMILES)
257 to 258 | CCOC(=O)c1c(-c2ccccc2Cl)c2cc(C)cc(C)c2[nH]c1=O
185 to 186 | CCCOc1ccc(C(=O)N/C(=C\c2ccc(OC(F)(F)F)cc2)C(=O)NCCO)cc1
114 to 117 | COc1cc([N+](=O)[O-])ccc1-c1cnc(C)s1
114 to 116 | COC(=O)[C@H](CS)NC(=O)[C@@H]1CCC(=O)N1 ([pGlu]-Cys-OMe)
172 to 175 | O=C(NC1CCCCC1)c1ccc(-c2ccc3nnn(Cc4ccc5ncccc5c4)c3n2)cc1F
128 to 130 | COc1ccc([N+](=O)[O-])c(C#N)c1C
222 to 224 | COc1c(NC(=O)c2ccc(C)c(-n3cc(C(=O)O)nn3)c2)cc(C(C)(C)C)cc1NS(C)(=O)=O
192 to 194 | O=C1CCNc2cc(Cl)c(F)cc21
149 to 150 | O=C(O)CCCCNS(=O)(=O)c1ccc(N2CCCCCCC2)cc1
76 to 77 | CC(C)c1nc2cc(COc3ccc(CCCn4ccnc4)cc3)ccc2o1
235 to 236 | O=C1c2ccc(F)cc2C(=O)N1CC(=O)N1c2ccccc2N(Cc2ccccc2)C(=O)[C@H]2CCC[C@H]21 (relative stereo)
145 to 147 | CCN(C(=O)N1CCN(c2cc(C)cc(C)c2)CC1)c1nc2ccccc2nc1OC
167 to 170 | CC(C)c1nc(CO)n(Cc2cnc3ccccc3c2)c1Sc1cc(Cl)cc(Cl)c1
139 to 140 | CCC(=O)OCC1OC(n2c(Cl)c(C=O)c3cc(Cl)c(Cl)cc32)C(O)C1O (centres undefined)
121 to 122 | CCOc1cc(OCCOCc2ccccc2)cc2c1C(=O)N(COC(=O)c1c(Cl)cccc1Cl)S2(=O)=O
175 to 180 | N#CCc1cc(=O)c(OCc2ccccc2)cn1Cc1ccccc1
165 to 166 | CCOP(=O)(Cc1ccc(C(=O)Nc2ccc(Br)cc2C#N)cc1)OCC
176 to 178 | O=C(O)C(O)=CC(=O)c1cn(Cc2ccc(C(F)(F)F)cc2)c(=O)n(Cc2ccc(C(F)(F)F)cc2)c1=O

melting point [°C] | Structure (SMILES)
170 to 174 | CC(=O)SCC(Cc1ccccc1)C(=O)Nc1cc(C(=O)O)ccc1N1CCCCC1 (centres undefined)
119 | CCCCCCCCOC1(OC(=O)C2CCCO2)C=CC(c2ccccc2)=CC1 (centres undefined)
98 to 100 | O=C1c2c(Cl)cccc2OCN1CCO[N+](=O)[O-]
114 to 116 | CC(C)N1CC(CCl)C(c2ccccc2)(c2ccccc2)C1=O (centres undefined)
174 to 175 | COc1ccc(C(=O)C=CC(=O)O)cc1OC
125 to 127 | COC(CN(C)C(=O)Nc1nnc(C(C)Oc2ccc(Cl)cc2Cl)s1)OC (centres undefined)
80 | O=CCC1Cc2ccc(Cl)cc2C1=O (racemic)
36.8 | CCOC(=O)c1ccncn1
238 to 244 | C[C@@H](Nc1ccc([N+](=O)[O-])cc1)C(=O)O
227 to 228 | O=C(Nc1ccc(-c2nc3ccccc3s2)cc1)c1ccccc1
> 250 | Cc1cc(COc2ccc(C(N)=O)cc2)c2c(N)c(C(N)=O)sc2n1
108 to 110 | CC(=O)N(c1cc(F)c(C#N)cc1F)c1nnnn1-c1ccc(OC(F)(F)F)cc1
131 to 133 | CNC(=O)N(O)C(C)c1ccc(-n2c(C)ccc2C)cc1 (centres undefined)
91 to 92 | COC(=O)NCCOc1cc(Oc2ccc(C(F)(F)F)cc2Cl)ccc1[N+](=O)[O-]
155 to 157 | CC1CCCN1C1CCN(c2ccc(CC(=O)NC3CCOCC3)cc2)C1 (centres undefined)
133 to 138 | O=c1c(Cc2ccccc2)c(-c2ccccc2)oc2cc(OCC3CO3)ccc12 (centres undefined)
67 | COC(=O)C[C@H](Cc1ccc(-c2ccccc2)cc1)NCP(=O)(OC)OC
156 to 157 | CCNC(=O)/C=C/c1cnoc1-c1ccccc1
